Literature values in patent US11512089B2, “Substituted [1,2,4]triazolo[3,4-a]phthalazines as modulators of GABAA receptor activity” (SHANGHAI SIMR BIOTECHNOLOGY CO., LTD, priority 2018, dated 2022).

Tests used:
α5-GABAA = target: T1, α5-GABAA (Homo sapiens, UniProt P31644); settings: cited from earlier work
T1 sequence (P31644 32-462): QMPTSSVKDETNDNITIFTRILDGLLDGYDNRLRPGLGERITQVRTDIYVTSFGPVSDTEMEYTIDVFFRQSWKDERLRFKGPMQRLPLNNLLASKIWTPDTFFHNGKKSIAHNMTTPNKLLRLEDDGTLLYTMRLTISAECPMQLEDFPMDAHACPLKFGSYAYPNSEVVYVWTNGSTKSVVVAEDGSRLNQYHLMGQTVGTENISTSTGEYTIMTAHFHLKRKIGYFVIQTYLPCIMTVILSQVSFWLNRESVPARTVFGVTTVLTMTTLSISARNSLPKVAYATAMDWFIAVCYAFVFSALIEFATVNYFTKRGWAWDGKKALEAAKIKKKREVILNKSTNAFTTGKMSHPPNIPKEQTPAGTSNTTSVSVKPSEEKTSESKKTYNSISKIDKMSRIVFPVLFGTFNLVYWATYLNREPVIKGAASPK

α5-GABAA receptor = settings: cited from earlier work

| SMILES | inhibition efficacy of the highest dose on the current induced by GABA (α5-GABAA; GABA concentration 1 μM) | inhibition on the current induced by GABA (α5-GABAA; GABA concentration higher than 1 μM) | block of the binding of (^3H)R0-15-1788 in brain (α5-GABAA receptor) |
| --- | --- | --- | --- |
| CCOC(=O)c1ncn2c1[C@@H]1CCCN1C(=O)c1cc(OC)ccc1-2 [L-655,708] | 15% | no inhibition | – |
| Cc1cc(-c2nncc3c(C(C)(C)C)c(OCc4ncnn4C)nn23)no1 [MRK016, 3-tert-butyl-7-(5-methylisoxazol-3-yl)-2-(1-methyl-1H-1,2,4-triazol-5-ylmethoxy)pyrazolo[1,5-d][1,2,4]triazine] | – | – | efficiently block |
